Laboratory results reported in patent publication US12673041B2, “4-aminobut-2-enamide derivatives and salt thereof” (TAIHO PHARMACEUTICAL CO., LTD., priority 2019, dated 2026).

What was measured:
[1] = biological target: Gppcp-bound recombinant K-Ras4B G12C mutant protein (amino acids 1-169, C51S/C80L/C118S) (Homo sapiens, UniProt P01116, C118S/C51S/C80L/G12C); assay: KRASG12C binding assay (LC-MS compound binding rate); settings: test compound final concentration 0.5 μM, 25° C., 1 hour
Protocol: As test compounds for the KRASG12C binding assay, the compounds obtained in the “Preparation of Compounds” section were used. Sample solutions each containing a test compound were prepared in the form of a 10 mM DMSO solution.
Gppcp-bound recombinant K-Ras4B G12C mutant protein (amino acids 1-169, C51S/C80L/C118S, SEQ ID NO:1) was diluted with a buffer (1×TBS, 0.1 mM TCEP, 0.25 mM MgCl2, 50 μM Gppcp) to prepare a 50 nM protein solution. K-Ras4B is the major splicing variant of K-Ras. Amino acid sequence of residues 1 to 150 including the compounds' binding region of K-Ras4B is exactly same as that of K-Ras4A, the other splicing variant (Oncotarget. 2016 Jul. 19; 7(29): 46717-46733). A sample solution containing 10 mM test compound was diluted ten-fold with DMSO to make a 1 mM sample solution, and then diluted twenty-fold with DMSO to make a 50 μM sample solution. 1 μL of a 50 μM sample solution was added to 100 μL of a 50 nM protein solution to adjust the final concentration of a test compound to be 0.5 μM in the mixture. The mixtures were stored in an incubator at 25° C. for 1 hour, and 10 μL of a 1×TBS solution containing 2% formic acid was added to stop the reaction, followed by LC-MS measurement. LC-MS measurement was performed using Xevo G2-S Q-Tof manufactured by Waters, and reverse-phase chromatography was performed with a desalting column. A mass spectrum of positive ions was obtained by electrospray. For a mass spectrum, a spectrum of polyvalent ions was collectively converted to a molecular weight by using OpenLynx software by the MaxEnt technique, and a compound binding rate was calculated from the ratio of the signal intensity of a peak that corresponds to the molecular weight of the protein to the signal intensity of a peak that corresponds to the molecular weight of the protein conjugated with the compound.
The binding assay of the test compounds was conducted at a final concentration of 0.5 μM. A binding rate of 80% or more is rated “A”, a binding rate of 60% or more and less than 80% is rated “B”, a binding rate of 40% or more and less than 60% is rated “C”, a binding rate of 20% or more and less than 40% is rated “D”, and a binding rate of less than 20% is rated “E”. N.D.=not determined. Binding rate % is the ratio of KRAS signal intensity at the molecular weight of one molecule adduct to the sum of all the KRAS signal intensity (unbound form and adducts) in mass spectrum.
Thus, binding rate 100% means that only the one molecule adduct was observed without any unbound KRAS.

[2] = biological target: T1, GMPPNP-bound KRAS G12C protein and cRAF RAS-binding domain (cRAF-RBD) (Homo sapiens, UniProt P01116, G12C); assay: Inhibitory activity on interaction between KRAS G12C and cRAF (Alpha technology); assay type: biochemical; settings: GMPPNP-bound KRAS G12C incubated with compound at 25° C. for 1 hour, then cRAF-RBD, Alpha signal; read-out: IC50
T1 construct: made in house; host or cells: E. coli
Protocol: Interaction between recombinant K-Ras4B G12C mutant protein (amino acids 1-169, SEQ ID NO:2) and cRAF RAS-binding domain (cRAF-RBD, amino acids 50-132, Jena Biosciences GmbH) was measured using Alpha technology (PerkinElmer Inc.).
Recombinant KRAS G12C protein with an N-terminal His-tag was expressed in E. coli and purified by affinity chromatography. To prepare GTP-bound form and GDP-bound form of KRAS G12C protein, 50 μM KRAS G12C protein was incubated with 1 mM GMPPNP (Guanosine-5′-[(β,γ)-imido]triphosphate, Tetralithium salt) (Jena Bioscience GmbH) and 1 mM GDP, respectively, in a loading buffer (20 mM Tris-HCl (pH 7.5), 50 mM NaCl, 1 mM DTT and 2.5 mM EDTA) for 1 hour on ice. After the incubation, MgCl2 was added to a final concentration of 10 mM, followed by incubation at room temperature for 30 minutes. The mixture was allowed to pass through a NAP-5 column to remove free nucleotides and purified, and the resultant nucleotide-bound KRAS G12C protein was used for compound evaluation.
For the measurement of the inhibitory activity of compounds on interaction between KRAS G12C and cRAF-RBD, GMPPNP-bound KRAS G12C protein was incubated with various concentrations of compound in a reaction buffer (20 mM Tris-HCl (pH 7.5), 100 mM NaCl, 1 mM MgCl2, 1 mM TCEP, 0.1% Tween 20) at 25° C. for 1 hour. After the incubation, recombinant cRAF-RBD and Alpha detection reagents were added and incubated at room temperature for 1.5 hours for binding. Interaction 5 of KRAS G12C and cRAF-RBD was monitored by measuring Alpha signal. Inhibition % was calculated using the signal from the reaction without test compound (DMSO control) as 0% inhibition and the signal from the reaction using GDP-bound KRAS G12C in place of GMPPNP-bound KRAS G12C as 100% inhibition. IC50 values were calculated from dose titration curve using curve fitting by XLfit software (IDBS).

Row | Compound | IC50 [2] [nM] | binding rate [1]
1 | O=C(/C=C/CN[C@H]1CC[C@H](O)CC1)Nc1ccc(C(=O)Nc2cccc(-c3cc4nc[nH]c4cc3Cl)c2)cn1 [Example 14, N-(3-(6-chloro-1H-benzo[d]imidazol-5-yl)phenyl)-6-((E)-4-(((1r,4r)-4-hydroxycyclohexyl)amino)but-2-enamido)nicotinamide] | 830 | D (a binding rate of 20% or more and less than 40% is rated “D”)
2 | CO[C@H]1CC[C@H](NC/C=C/C(=O)Nc2ccc(C(=O)c3ccc4c(-c5c(O)cccc5F)cccn34)cc2C#N)CC1 [Example 46, (E)-N-(2-cyano-4-(8-(2-fluoro-6-hydroxyphenyl)indolizine-3-carbonyl)phenyl)-4-(((1r,4r)-4-methoxycyclohexyl)amino)but-2-enamide] | 170 | A (A binding rate of 80% or more is rated “A”)
3 | C=C(C)c1c(-c2cccn3c(C(=O)c4ccc(NC(=O)/C=C/CNC(C)(C)C)c(C#N)c4)ccc23)c(C)cc2c1ncn2C [Example 61, (E)-4-(tert-butylamino)-N-(2-cyano-4-(8-(1,6-dimethyl-4-(prop-1-en-2-yl)-1H-benzo[d]imidazol-5-yl)indolizine-3-carbonyl)phenyl)but-2-enamide] | 230 | A (A binding rate of 80% or more is rated “A”)
4 | Cc1ccc2c(cnn2C)c1-c1cccn2c(C(=O)c3ccc(NC(=O)/C=C/CNC(C)(C)C)c(C#N)c3)ccc12 [Example 53, (2E)-4-(tert-Butylamino)-N-{2-cyano-4-[8-(1,5-dimethyl-1H-indazol-4-yl)indolizine-3-carbonyl]phenyl}but-2-enamide] | 150 | A (A binding rate of 80% or more is rated “A”)
5 | CO[C@H]1CC[C@H](NC/C=C/C(=O)NC2CCN(C(=O)c3ccc4c(-c5cc6ncn(C)c6cc5C)cccn34)CC2)CC1 [Example 48, (2E)-N-{1-[8-(1,6-dimethyl-1H-1,3-benzodiazol-5-yl)indolizine-3-carbonyl]piperidin-4-yl}-4-{[trans-4-methoxycyclohexyl]amino}but-2-enamide] | > 6700 | E (a binding rate of less than 20% is rated “E”)
6 | CO[C@H]1CC[C@H](NC/C=C/C(=O)Nc2ccc(C(=O)c3ccc4c(-c5c(C)cc6c(ncn6C)c5-c5cncnc5)cccn34)cc2C#N)CC1 [Example 69, (E)-N-(2-cyano-4-(8-(1,6-dimethyl-4-(pyrimidin-5-yl)-1H-benzo[d]imidazol-5-yl)indolizine-3-carbonyl)phenyl)-4-(((1r,4r)-4-methoxycyclohexyl)amino)but-2-enamide] | 260 | B (a binding rate of 60% or more and less than 80% is rated “B”)

Further lines, with some results ahead:

Row | IC50 [2] [nM] | Compound | binding rate [1]
7 | 420 | COCc1nc2cc(-c3cccc(NC(=O)c4ccc(NC(=O)/C=C/CNC5CCC5)c(C#N)c4)c3)c(C(F)(F)F)cc2n1C [Example 26, (E)-3-cyano-4-(4-(cyclobutylamino)but-2-enamido)-N-(3-(2-(methoxymethyl)-1-methyl-6-(trifluoromethyl)-1H-benzo[d]imidazol-5-yl)phenyl)benzamide] | C (a binding rate of 40% or more and less than 60% is rated “C”)
8 | 200 | CCc1nc2c(Cl)c(-c3cccc(NC(=O)c4ccc(NC(=O)/C=C/CN[C@H]5CC[C@H](OC)CC5)c(C#N)c4)c3)c(C(F)(F)F)cc2n1C [Example 15, N-(3-(4-chloro-2-ethyl-1-methyl-6-(trifluoromethyl)-1H-benzo[d]imidazol-5-yl)phenyl)-3-cyano-4-((E)-4-(((1r,4r)-4-methoxycyclohexyl)amino)but-2-enamido)benzamide] | A (A binding rate of 80% or more is rated “A”)
9 | 360 | Cn1cnc2cc(-c3cccn4c(C(=O)c5ccc(NC(=O)/C=C/[C@H]6CCCN6)c(C#N)c5)ccc34)c(C(F)(F)F)cc21 [Example 42, (R,E)-N-(2-cyano-4-(8-(1-methyl-6-(trifluoromethyl)-1H-benzo[d]imidazol-5-yl)indolizine-3-carbonyl)phenyl)-3-(pyrrolidin-2-yl)acrylamide] | D (a binding rate of 20% or more and less than 40% is rated “D”)
10 | 100 | CO[C@H]1C[C@H](NC/C=C/C(=O)Nc2ccc(C(=O)Nc3cccc(-c4cc5nc6n(c5cc4C(F)(F)F)CCC6)c3)cc2C#N)C1 [Example 28, 3-cyano-4-((E)-4-(((1r,3r)-3-methoxycyclobutyl)amino)but-2-enamido)-N-(3-(7-(trifluoromethyl)-2,3-dihydro-1H-benzo[d]pyrrolo[1,2-a]imidazol-6-yl)phenyl)benzamide] | A (A binding rate of 80% or more is rated “A”)
11 | 150 | CO[C@H]1CC[C@H](NC/C=C/C(=O)Nc2ccc(C(=O)c3ccc4c(-c5cc6nn(C)cc6cc5C)cccn34)cc2C#N)CC1 [Example 75, (E)-N-(2-cyano-4-(8-(2,5-dimethyl-2H-indazol-6-yl)indolizine-3-carbonyl)phenyl)-4-(((1r,4r)-4-methoxycyclohexyl)amino)but-2-enamide] | A (A binding rate of 80% or more is rated “A”)
12 | 190 | CCc1nc2cc(-c3cccc4c3CCN4C(=O)c3ccc(NC(=O)/C=C/CN[C@H]4CC[C@H](OC)CC4)c(C#N)c3)c(C(F)(F)F)cc2n1C [Example 10, (E)-N-(2-cyano-4-(4-(2-ethyl-1-methyl-6-(trifluoromethyl)-1H-benzo[d]imidazol-5-yl)indoline-1-carbonyl)phenyl)-4-(((1r,4r)-4-methoxycyclohexyl)amino)but-2-enamide] | A (A binding rate of 80% or more is rated “A”)
13 | 150 | Cc1nc2c(Cl)c(-c3cccc(NC(=O)c4ccc(NC(=O)/C=C/CNC5CCC(F)(F)CC5)c(C#N)c4)c3)c(Cl)cc2n1C [Example 20, (E)-3-cyano-N-(3-(4,6-dichloro-1,2-dimethyl-1H-benzo[d]imidazol-5-yl)phenyl)-4-(4-((4,4-difluorocyclohexyl)amino)but-2-enamido)benzamide] | A (A binding rate of 80% or more is rated “A”)
14 | 160 | CO[C@H]1CC[C@H](NC/C=C/C(=O)Nc2ccc(C(=O)c3ncc4c(-c5cc6ncn(C)c6cc5C)cccn34)cc2C#N)CC1 [Example 57, (E)-N-(2-cyano-4-(8-(1,6-dimethyl-1H-benzo[d]imidazol-5-yl)imidazo[1,5-a]pyridine-3-carbonyl)phenyl)-4-(((1r,4r)-4-methoxycyclohexyl)amino)but-2-enamide] | C (a binding rate of 40% or more and less than 60% is rated “C”)
